Measured values as given in patent US11910795B2, “Natural indole auxin and aminopolycarboxylic acid herbicidal compositions” (Suncor Energy Inc., priority 2013, dated 2024).

Columns and labels:
[1] = tested on: buckhorn plantains; experiment: Field testing control of buckhorn plantain in North Carolina (Example 4); assay type: in vivo; conditions: Table 5 (FIG. 5)
Description: The formulations were applied at a rate of 200 gpa onto sections of a plot containing buckhorn plantains and other weeds in North Carolina, U.S.A. A second application of the formulations was made 21 days following the initial application. The sections were visually inspected and rated over the course of 56 days following the initial application. Performance of the formulations was evaluated based on the percentage control of the buckhorn plantains observed in each section.

[2] = tested on: Dandelions; experiment: Field testing control of dandelions in Ontario (Example 5); assay type: in vivo; conditions: Table 6 (FIG. 6), 200 gpa, rated 10 and 30 days following application
Description: Formulations containing IBA, DTPA, and combinations of IBA with various chelating agents including salts of DTPA, EDTA, ethylenediamine-N,N′-disuccinic acid (EDDS), N-(hydroxyethyl)-ethylenediaminetriacetic acid (HEDTA), and lignosulfonic acid were prepared as detailed in Table 6 the solutions were prepared in water at the concentrations indicated ([…]). The formulations were applied at a rate of 200 gpa onto sections of a plot containing dandelions and other weeds in Ontario, Canada. Injuries to the grass and dandelions were visually inspected and rated 10 days and 30 days following application of the formulations. Performance of the formulations was evaluated based on the percentage of control of the dandelions observed. Injuries to the grass were also rated using a 0-10 scale: 0=no injury; 10=plant dead, severe injury.

[3] = tested on: Dandelions; experiment: Control of dandelions in greenhouse study (Example 2, IBA/EDTA); assay type: in vivo; conditions: for control on weeds: Table 3 (FIG. 3), greenhouse, 200 gpa, result in words; for effect on weeds at concentrations greater than 5% by weight / herbicidal effect at concentrations lower than 5% by weight: tested alone; for effect on weeds at concentrations greater than 5% by weight: Table 3; for herbicidal effect at concentrations lower than 5% by weight: Table 3 (IBA: Tr 2-4)
Description: (§1) Dandelions and Kentucky Bluegrass were seeded and grown in the greenhouse for at least 10 weeks before treatment. Ready-to-use formulations containing indole-3-butyric acid (IBA) and ethylenediaminetetraacetic acid (EDTA), including ethylenediaminetetraacetic acid tetrasodium salt (EDTA Na4), ethylenediaminetetraacetic acid disodium salt (EDTA Na2), and ethylenediaminetetraacetic acid calcium sodium salt, and combinations of IBA and a chelator were prepared as detailed in Table 3 with the remainder of the formulation being comprised of water. IBA was initially dissolved in KHCO3 when the acid could not be dissolved directly and then diluted in water to the concentration indicated (this is indicated below in Table 3 by the label IBA-K). The prepared formulations were applied to sections of the dandelion and Kentucky Bluegrass plots at a rate of 200 gallons per acre (gpa).
(§2) Injuries to the grass and weeds were visually inspected and rated for 4 weeks using a 0-10 scale: 0=no injury; 10=plant dead. For turfgrass, ratings greater than 3 indicated unacceptable phytotoxicity. The numbers indicate the maximum effect observed on the various plants. When regrowth of the plants following application was observed, it is noted in the table following the overall injury score.

[4] = tested on: Kentucky Bluegrass; experiment: Injury to Kentucky Bluegrass in greenhouse study (Example 2, IBA/EDTA); assay type: in vivo; conditions: tested alone, Table 3
Description: as §1, §2

[5] = Solubility of IBA in aqueous solutions (Example 9); assay type: physicochemical
Excerpt: The solubility of IBA and its salts was investigated in various aqueous solutions under different pH conditions. The effect of chelators such as EDTA and HEDTA on the solubility of IBA was also investigated. The data provided further evidence of the relatively limited water solubility of the IBA acid (<0.1%).

[6] = Dissolving IBA when preparing formulations (Example 2); assay type: physicochemical; conditions: Treatment 10, 12 and 14 of Table 3
Description: as §1

| Structure (SMILES) | time after which the weeds began to exhibit regrowth [1] [days] | control on the buckhorn plantains ([1]; 200 gpa, second application after 21 days, rated over 56 days) | control of the dandelions [2] | control on weeds [3] | regrowth of the weeds ([3]; Table 3, after application) | effect on weeds at concentrations greater than 5% by weight [3] | herbicidal effect at concentrations lower than 5% by weight [3] | injury to the grass at concentrations greater than 5% by weight [4] | dissolution of a 1% solution under alkaline conditions ([5]; 1% solution of IBA) | pH at which a 1% solution was stable ([5]; 1% solution of IBA) | water solubility ([5]; IBA acid in water) [%] | dissolution of IBA in EDTA-Na4 [6] |
| --- | --- | --- | --- | --- | --- | --- | --- | --- | --- | --- | --- | --- |
| O=C(O)CN(CCN(CC(=O)O)CC(=O)O)CCN(CC(=O)O)CC(=O)O [DTPA, diethylenetriaminepentaacetic acid] | > 25 | moderate control | moderate control | – | – | – | – | – | – | – | – | – |
| O=C(O)CN(CCN(CC(=O)O)CC(=O)O)CC(=O)O [EDTA, ethylenediaminetetraacetic acid] | – | – | – | low to moderate control | grow back after 14 or 28 DAT | burns the leaves of weeds | limited herbicidal effect | – | – | – | – | – |
| O=C(O)CCCc1c[nH]c2ccccc12 [IBA, indole-3-butyric acid] | – | – | moderate control | low to moderate control | – | exhibited control of the weeds | limited herbicidal effect | severe injury | dissolves well | > 6 | < 0.1 | can be dissolved in EDTA-Na4 directly without addition of KHCO3 |
